# Tests used:
# Assay in all cases: relative viability (nuclei count vs DMSO), 5 days (fraction); higher = more cells survive
# [1] = compound: CN1CCN(c2ccc3nc(-c4c(N)c5c(F)cccc5[nH]c4=O)[nH]c3c2)CC1 [Dovitinib] + CC(C)C[C@H](NC(=O)[C@H](Cc1ccccc1)NC(=O)c1cnccn1)B(O)O [Bortezomib] (partner 0.002 µM)
# Method in brief: (§1)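 After 5 days of treatment, lung cancer cells in 1536-well plates were fixed and stained in a single step (final 0.05% Triton X-100, 1% formaldehyde, 1 ug/ml Hoechst) and their nuclei counted on 4× images. Treatment had been applied by pin tool the day after seeding as one drug alone or as a fixed anchor-drug dose with five library-drug doses (not always all listed) in √10 steps. Relative viability is the nuclei count of treated wells divided by that of vehicle wells, and values are medians of duplicate plates.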
# [2] = compound: CN1CCN(c2ccc3nc(-c4c(N)c5c(F)cccc5[nH]c4=O)[nH]c3c2)CC1 [Dovitinib] + Cc1nc(Nc2ncc(C(=O)Nc3c(C)cccc3Cl)s2)cc(N2CCN(CCO)CC2)n1 [Dasatinib] (partner 0.075 µM)
# Method in brief: as §1
# [3] = compound: CN1CCN(c2ccc3nc(-c4c(N)c5c(F)cccc5[nH]c4=O)[nH]c3c2)CC1 [Dovitinib] + CC1(C)CCC(c2ccc(Cl)cc2)=C(CN2CCN(c3ccc(C(=O)NS(=O)(=O)c4ccc(N[C@H](CCN5CCOCC5)CSc5ccccc5)c(S(=O)(=O)C(F)(F)F)c4)cc3)CC2)C1 [Navitoclax] (partner 0.5 µM)
# Method in brief: as §1
# [4] = compound: CN1CCN(c2ccc3nc(-c4c(N)c5c(F)cccc5[nH]c4=O)[nH]c3c2)CC1 [Dovitinib] + CCNC(=O)c1noc(-c2cc(C(C)C)c(O)cc2O)c1-c1ccc(CN2CCOCC2)cc1 [Luminespib] (partner 0.01 µM)
# Method in brief: as §1
Cell Line,relative viability ([1]; first compound 0.02 µM),relative viability ([1]; first compound 0.06325 µM),relative viability ([1]; first compound 0.6325 µM),relative viability ([1]; first compound 2 µM),relative viability ([2]; first compound 0.02 µM),relative viability ([2]; first compound 0.06325 µM),relative viability ([2]; first compound 0.2 µM),relative viability ([2]; first compound 0.6325 µM),relative viability ([2]; first compound 2 µM),relative viability ([3]; first compound 0.02 µM),relative viability ([3]; first compound 0.06325 µM),relative viability ([3]; first compound 0.6325 µM),relative viability ([3]; first compound 2 µM),relative viability ([4]; first compound 0.02 µM),relative viability ([4]; first compound 0.06325 µM),relative viability ([4]; first compound 0.2 µM),relative viability ([4]; first compound 0.6325 µM),relative viability ([4]; first compound 2 µM),relative viability ([1]; first compound 0.2 µM),relative viability ([3]; first compound 0.2 µM)
201T,1.05,1.04,1.1,1.09,0.571,0.565,0.581,0.566,0.538,1.12,1.21,1.22,1.21,0.924,1.04,1.02,1.09,1.01,,
A-427,0.87,0.909,0.93,1.03,0.624,0.654,0.673,0.634,0.698,0.91,0.933,0.902,0.822,0.843,1.02,1.14,0.897,0.747,0.953,0.942
ABC-1,0.262,0.34,0.323,0.315,0.479,0.55,0.474,0.618,0.61,,,,,,0.522,0.326,0.783,0.659,0.306,
BEN,0.705,0.991,1.12,0.679,0.32,0.272,0.321,0.326,0.307,0.0734,0.0569,0.0923,0.0738,0.258,0.458,0.432,0.512,0.203,0.948,0.0676
CAL-12T,1.28,1,0.977,1.05,0.43,0.486,0.465,0.49,0.457,1.24,1.12,1.17,1.42,0.297,0.469,0.495,0.519,0.219,1.1,1.43
COR-L23,0.82,1.03,1.16,1.16,0.482,0.565,0.512,0.534,0.567,0.962,1.19,1.05,1.07,0.581,0.788,0.695,0.664,0.72,1.06,1.02
COR-L 105,0.779,0.666,0.84,0.965,0.34,0.34,0.332,0.439,0.393,0.701,0.62,0.646,0.806,0.77,0.84,0.78,0.82,0.81,0.86,0.754
Calu-6,1.05,0.992,0.993,0.98,,,,,,0.828,0.784,0.813,0.782,,,,,,1,0.828
ChaGo-K-1,1.1,1.01,1.04,1.03,0.632,0.559,0.603,0.595,0.526,1.01,0.976,1.14,1.18,0.631,0.627,0.567,0.609,0.628,0.952,0.975
EBC-1,0.543,0.488,0.564,0.587,,,,,,0.475,0.38,0.384,0.55,,,,,,0.571,0.421
EKVX,1.08,1.08,1.06,1.08,0.517,0.662,0.588,0.61,0.611,0.923,0.989,0.989,0.883,0.914,0.901,0.882,0.89,0.866,1.22,1.1
EMC-BAC-2,1.05,0.995,1.05,1.04,0.362,0.284,0.341,0.299,0.202,1.12,1.2,1.15,1.13,1.19,1.13,1.16,1.05,0.986,1.08,1.12
EPLC-272H,0.917,0.949,0.875,0.905,0.351,0.346,0.36,0.37,0.31,1.05,0.993,1.49,0.97,0.235,0.241,0.386,0.364,0.236,0.883,1.24
H3255,0.773,0.642,0.739,0.788,0.405,0.374,0.424,0.445,0.369,0.627,0.532,0.559,0.582,0.943,0.9,0.956,0.932,0.923,0.804,0.569
HARA,1.26,1.16,1.17,1.2,0.319,0.152,0.275,0.226,0.291,1.16,1.16,1.15,1.15,0.708,0.682,0.595,0.603,0.763,1.01,1.12
HCC-15,1.03,1.07,1.05,1.02,0.673,0.548,0.664,0.59,0.561,0.777,0.701,0.708,0.7,0.233,0.237,0.238,0.297,0.303,1.02,0.707
HCC-44,0.822,0.836,0.894,0.916,,,,,,0.954,0.925,0.974,0.876,0.981,0.976,1.12,1.11,1.02,0.867,0.923
HCC-78,0.636,0.486,0.567,0.355,0.426,0.328,0.392,0.453,0.357,0.784,,0.754,0.772,,,,,,0.531,0.827
HCC-366,1.08,1.06,1.06,0.999,0.687,0.604,0.648,0.616,0.618,1.07,1.16,1.08,0.971,,,,,,0.987,1.02
HCC-827,1.08,1.07,1.09,1.05,0.358,0.327,0.357,0.366,0.407,1.03,1.02,1,0.974,0.854,0.676,0.596,0.509,0.717,1.04,1.07

Cell Line,relative viability ([1]; first compound 0.02 µM),relative viability ([1]; first compound 0.06325 µM),relative viability ([1]; first compound 0.6325 µM),relative viability ([1]; first compound 2 µM),relative viability ([2]; first compound 0.02 µM),relative viability ([2]; first compound 0.06325 µM),relative viability ([2]; first compound 0.2 µM),relative viability ([2]; first compound 0.6325 µM),relative viability ([2]; first compound 2 µM),relative viability ([3]; first compound 0.02 µM),relative viability ([3]; first compound 0.06325 µM),relative viability ([3]; first compound 0.6325 µM),relative viability ([3]; first compound 2 µM),relative viability ([4]; first compound 0.02 µM),relative viability ([4]; first compound 0.06325 µM),relative viability ([4]; first compound 0.2 µM),relative viability ([4]; first compound 0.6325 µM),relative viability ([4]; first compound 2 µM),relative viability ([1]; first compound 0.2 µM),relative viability ([3]; first compound 0.2 µM)
HOP-62,0.604,0.619,0.968,0.578,0.643,0.601,0.64,0.632,0.662,0.95,0.995,1.1,1.08,0.888,1.03,0.868,0.89,0.931,0.794,1.01
IA-LM,0.787,1.01,0.837,0.772,,,,,,0.778,0.961,0.704,0.76,,,,,,0.666,0.814
LC-2-ad,1.08,0.983,1.06,0.789,0.661,0.524,0.55,0.514,0.429,0.463,0.603,0.382,0.376,0.991,0.994,1.01,0.979,0.995,1.02,0.403
LCLC-97TM1,0.754,0.783,0.867,0.566,0.8,0.896,0.887,0.876,0.775,0.368,0.384,0.403,0.478,0.953,0.746,0.831,0.801,0.701,0.371,0.339
LCLC-103H,1,1.07,0.987,1.13,0.487,0.503,0.461,0.374,0.489,,,,,0.963,1,1.01,0.885,0.922,1.01,
LK-2,,,,,0.282,0.242,0.281,0.325,0.396,0.995,0.896,0.766,0.767,0.191,0.162,0.179,0.219,0.182,,0.876
LOU-NH91,0.433,0.502,0.585,0.401,0.586,0.553,0.549,0.64,0.574,0.687,0.72,0.7,0.804,0.322,0.308,0.335,0.327,0.349,0.479,0.684
NCI-H358,,,,,0.154,0.177,0.176,0.184,0.179,,,,,0.31,0.306,0.428,0.813,0.306,,
NCI-H650,0.883,0.711,0.709,0.806,0.48,0.383,0.49,0.5,0.432,,,,,0.798,0.667,0.808,0.744,0.788,0.729,
NCI-H661,0.852,0.746,0.934,0.85,0.85,0.829,1.01,0.984,0.936,,,,,0.87,0.93,0.924,0.936,0.975,0.937,
NCI-H1299,0.977,1.03,1.05,1.03,,,,,,1.01,1.04,1.05,1.08,,,,,,1.06,1.09
NCI-H1395,,,,,0.448,0.423,0.437,0.402,0.425,1.26,1.53,1.01,1.21,0.703,0.661,0.757,0.629,0.665,,1.26
NCI-H1563,0.962,0.879,0.938,0.908,0.478,0.475,0.469,0.507,0.509,,,,,0.567,0.481,0.615,0.509,0.543,0.977,
NCI-H1703,0.47,0.335,0.328,0.291,,,,,,1.18,1.41,0.775,0.33,,,,,,0.18,0.84
NCI-H1793,,,,,0.458,0.364,0.367,0.385,0.503,0.407,0.359,0.476,0.373,0.199,0.164,0.165,0.211,0.167,,0.456
NCI-H1944,,,,,0.214,0.21,0.208,0.212,0.228,1.01,0.995,1.08,1.1,0.643,0.773,0.757,0.704,0.715,,1.02
NCI-H2170,,,,,0.552,0.566,0.608,0.599,0.552,0.58,0.63,0.531,0.612,0.892,0.79,0.857,0.538,0.652,,0.756
NCI-H2342,,,,,0.339,0.324,0.337,0.298,0.318,,,,,0.675,0.711,0.741,0.692,0.579,,
SK-MES-1,,,,,0.349,0.426,0.417,0.414,0.477,1.24,1.21,1.31,1.27,0.653,0.949,0.785,0.661,0.887,,1.16
